From patent US11839613B2, “Pyrimidine derivatives as PGE2 receptor modulators” (IDORSIA PHARMACEUTICALS LTD, priority 2017, dated 2023)

What was measured:
EP4 = EP4 (Homo sapiens (Human), UniProt P35408); experiment: hEP4 cAMP assay (BT549 breast cancer cells, HTRF cAMP); assay type: cell-based; conditions: antagonistic activity, PGE2 6 nM
Summary of the method: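 BT549 breast cancer cells (endogenous EP4) in HBSS/20 mM HEPES/0.2% BSA/2 mM IBMX preincubated 45 min at RT with compound, then stimulated 30 min at RT with 6 nM PGE2 (final). cAMP read by competitive HTRF immunoassay, signal inversely proportional to cAMP.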

EP2 = EP2 (Homo sapiens (Human), UniProt P43116); experiment: hEP2 cAMP assay (SF295 glioblastoma cells, HTRF cAMP); assay type: cell-based; conditions: antagonistic activity
Summary of the method: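 PGE2-driven cAMP accumulation was measured by HTRF in SF295 cells, which express endogenous EP2 only. Cells in assay buffer with 2 mM IBMX were pre-incubated 45 min at RT, then incubated 30 min at RT. Detection used competition between cellular cAMP and d2-cAMP for a cryptate anti-cAMP antibody.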

PTGER4 (EP4) = PTGER4 (EP4) (Homo sapiens (Human), UniProt P35408)
PTGER2 (EP2) = PTGER2 (EP2) (Homo sapiens (Human), UniProt P43116); experiment: hEP2 b-arrestin assay (PathHunter HEK 293 PTGER2 b-arrestin cells); assay type: cell-based; conditions: antagonistic activity, beta-arrestin assay; read-out: hEP2 b-arr IC50
Procedure: Plate is pre-incubated 15 minutes at 37° C. Then five microliters of PGE2 (final conc. 5 μM) are transferred into the assay plate. Plate is incubated 120 minutes at 37° C.
(each concentration is measured in duplicate)

Sequence of PTGER2 (EP2) (P43116 whole entry): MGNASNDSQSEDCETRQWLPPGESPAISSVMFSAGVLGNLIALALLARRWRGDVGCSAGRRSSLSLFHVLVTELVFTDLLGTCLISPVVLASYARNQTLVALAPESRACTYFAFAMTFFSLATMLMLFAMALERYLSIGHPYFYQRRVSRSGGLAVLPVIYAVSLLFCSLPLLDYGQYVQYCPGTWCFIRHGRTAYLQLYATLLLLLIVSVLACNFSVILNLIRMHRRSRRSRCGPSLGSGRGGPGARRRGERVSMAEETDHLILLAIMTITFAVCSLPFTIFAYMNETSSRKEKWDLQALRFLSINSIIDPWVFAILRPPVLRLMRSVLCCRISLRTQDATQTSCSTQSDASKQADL
Sequence of EP2 (P43116 whole entry): as above
Sequence of EP4 (P35408 whole entry): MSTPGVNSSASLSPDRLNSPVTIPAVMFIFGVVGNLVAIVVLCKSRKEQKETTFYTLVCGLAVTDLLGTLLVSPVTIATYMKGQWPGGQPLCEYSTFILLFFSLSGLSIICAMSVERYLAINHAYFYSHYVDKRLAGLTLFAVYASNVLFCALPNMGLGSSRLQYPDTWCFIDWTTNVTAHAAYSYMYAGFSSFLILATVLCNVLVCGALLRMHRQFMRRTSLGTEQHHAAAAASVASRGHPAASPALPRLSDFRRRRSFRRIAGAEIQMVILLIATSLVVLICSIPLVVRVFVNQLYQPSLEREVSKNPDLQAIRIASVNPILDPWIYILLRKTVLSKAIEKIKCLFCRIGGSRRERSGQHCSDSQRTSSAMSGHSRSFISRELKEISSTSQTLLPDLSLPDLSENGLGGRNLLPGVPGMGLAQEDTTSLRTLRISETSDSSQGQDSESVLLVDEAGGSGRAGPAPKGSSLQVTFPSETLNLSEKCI
Sequence of PTGER4 (EP4) (P35408 whole entry): as above

Row | Compound | IC50 (EP4) [nM] | IC50 (EP2) [nM] | IC50 (PTGER4 (EP4)) [nM] | IC50 (PTGER2 (EP2)) [nM] | IC50 (EP4; BT549 cells) [nM]
1 | CCOc1cc(-c2cc(NCCc3c(C#N)cc4ccccc4c3F)ncn2)ccc1C(=O)O [Ex 73] | 39 | 1770 | 91 | 809 | 
2 | CCOc1cc(-c2cc(NCCc3ccc4sccc4c3C)ncn2)ccc1C(=O)O [Ex 296] | 583 | 61 | 1600 | 34 | 
3 | COc1cc2ccccc2c(C)c1CCNc1cc(-c2ccc(C(=O)O)c(OC3CCC3)c2)ncn1 [Ex 79] | 44 | 83 | 56 | 43 | 
4 | CSc1cc(-c2cc(NCCc3ccc4sccc4c3C)ncn2)ccc1CC(=O)O [Ex 326] | 910 | 160 | 1070 | 126 | 
5 | CCOc1cc2sccc2cc1CCNc1cc(-c2ccc(OCC(=O)O)c(OCC)c2)ncn1 [Ex 53] | 25 | 12 | 12 | 5 | 
6 | CSc1cc(-c2cc(NCCc3c(C#N)cc4ccccc4c3C)ncn2)ccc1C(=O)O [Ex 52] | 25 | 158 | 63 | 318 | 
7 | CCOc1cc(-c2cc(NCCc3cc(F)c4c(c3)OCCO4)ncn2)sc1C(=O)O [Ex 35] | 18 | 194 | 23 | 359 | 
8 | CCOc1cc(-c2cc(NCCc3cc(F)c4cc(C)sc4c3OC)ncn2)sc1C(=O)O [Ex 94] | 59 | 528 | 49 | 423 | 
9 | COc1cc2ccccc2c(C)c1CCNc1cc(-c2ccc(C(=O)O)c(SC)c2)ncn1 [Ex 59] | 30 | 18 | 94 | 37 | 
10 | COc1cc2sccc2cc1CCNc1cc(-c2ccc(CC(=O)O)c(SC)c2)ncn1 [Ex 224] | 173 | 61 | 260 | 84 | 
11 | CCOc1cc(-c2cc(NCCc3cc4c(cc3C#N)OCO4)ncn2)sc1C(=O)O [Ex 64] | 33 | 28 | 41 | 25 | 
12 | CCOc1cc2ccccc2cc1CCNc1cc(-c2cc(OCC)c(C(=O)O)s2)ncn1 [Ex 23] | 14 | 19 | 3 | 15 | 
13 | CCOc1cc(-c2cc(NCCc3ccc4sccc4c3C)ncn2)ccc1CC(=O)O [Ex 289] | 525 | 358 | 964 | 144 | 
14 | CCOc1cc2sccc2cc1CCNc1cc(-c2ccc(C(=O)O)c(OCC)c2)ncn1 [Ex 126] | 101 | 6 | 66 | 8 | 
15 | CCOc1cc(-c2cc(NCCc3c(C#N)cc4ccccc4c3C)ncn2)sc1C(=O)O [Ex 2] | 1 | 79 | 3 | 113 | 
16 | CSc1cc(-c2cc(NCCc3c(F)cc4ccccc4c3F)ncn2)ccc1CC(=O)O [Ex 270] | 435 | 5660 | 404 | 1520 | 
17 | CSc1cc(-c2cc(NCCc3cc4ccsc4cc3C#N)ncn2)ccc1C(=O)O [Ex 77] | 43 | 25 | 154 | 47 | 
18 | CCOc1cc(-c2cc(NCCc3ccc4c(c3)CCO4)ncn2)sc1C(=O)O [Ex 114] | 85 | 222 | 640 | 222 | 
19 | 2-Ethoxy-4-{6-[2-(7-ethynyl-2,3-dihydro-benzo[1,4]dioxin-6-yl)-ethylamino]-pyrimidin-4-yl}-benzoic acid [Example 439] |  | 33 | 197 | 17 | 139
20 | CCOc1cc(-c2cc(NCCc3cc4cccnc4c(F)c3Cl)ncn2)sc1C(=O)O [Ex 117] | 88 | 61 | 131 | 53 | 
21 | CSc1cc(-c2cc(NCCc3cc4ccsc4cc3C)ncn2)ccc1CC(=O)O [Ex 305] | 653 | 232 | 1350 | 57 | 
22 | CCOc1cc(-c2cc(NCCc3ccc4sccc4c3)nc(C)n2)sc1C(=O)O [Ex 96] | 61 | 57 | 92 | 148 | 
23 | CCOc1cc(-c2cc(NCCc3ccc4scc(C#N)c4c3)ncn2)ccc1CC(=O)O [Ex 209] | 249 | 248 | 143 | 832 | 
24 | CCOc1cc(-c2cc(NCCc3cc4ccsc4cc3OC)ncn2)ccc1OCC(=O)O [Ex 80] | 45 | 37 | 32 | 17 | 
25 | CCOc1cc(-c2cc(NCCc3cc4ccccc4cc3OC(F)F)ncn2)sc1C(=O)O [Ex 45] | 21 | 185 | 5 | 127 | 

Row | Compound | IC50 (EP4) [nM] | IC50 (EP2) [nM] | IC50 (PTGER4 (EP4)) [nM] | IC50 (PTGER2 (EP2)) [nM] | IC50 (EP4; BT549 cells) [nM]
26 | CCOc1cc(-c2cc(NCCc3cc4ccccc4cc3OC(C)C)ncn2)ccc1OCC(=O)O [Ex 89] | 54 | 19400 | 17 |  | 
27 | CCOc1cc(-c2cc(NCCc3c(OC)cc4ccccc4c3F)ncn2)ccc1CC(=O)O [Ex 37] | 22 | 281 | 16 |  | 
28 | COc1c(CCNc2cc(-c3cc(F)c(C(=O)O)c(OC4CCC4)c3)ncn2)c(F)c(F)c2cc(C)oc12 [Ex 262] | 424 | 855 | 186 | 1300 | 
29 | COc1c(CCNc2cc(-c3ccc(C(=O)O)c(SC)c3)ncn2)cc2ccccc2c1Cl [Ex 186] | 202 | 811 | 194 |  | 
30 | O=C(O)c1ccc(-c2cc(NCCc3cc4ccccc4cc3OC(F)F)ncn2)cc1OC1CCC1 [Ex 180] | 188 | 692 | 55 |  | 
31 | CCOc1cc(-c2cc(NCCc3cc4ccccc4c(Cl)c3OC)ncn2)sc1C(=O)O [Ex 19] | 11 | 249 | 16 |  | 
32 | CCOc1cc(-c2cc(NCCc3c(C#N)cc4ccccc4c3C)ncn2)ccc1C(=O)O [Ex 54] | 27 | 331 | 68 |  | 
33 | CCOc1cc(-c2cc(NCCc3cc4ccccc4cc3OC(C)C)ncn2)ccc1C(=O)O [Ex 284] | 509 | > 28100 | 125 |  | 
34 | CCOc1cc(-c2cc(NCCc3cc(F)c4ncccc4c3F)ncn2)sc1C(=O)O [Ex 86] | 49 | 445 | 79 |  | 
35 | CCOc1cc(-c2cc(NCCc3c(F)cc4ncccc4c3F)ncn2)ccc1OCC(=O)O [Ex 191] | 208 | 329 | 279 |  | 
36 | CCOc1cc(-c2cc(NCCc3cc4ccsc4cc3C#N)ncn2)ccc1CC(=O)O [Ex 82] | 46 | 251 | 128 |  | 
37 | C#Cc1c(CCNc2cc(-c3ccc(C(=O)O)c(OC4CCC4)c3)ncn2)ccc2ccccc12 [Ex 131] | 106 | 353 | 68 |  | 
38 | N#Cc1cc2c(cc1CCNc1cc(-c3ccc(C(=O)O)c(OC4CCC4)c3)ncn1)OCCO2 [Ex 113] | 82 | 251 | 179 |  | 
39 | O=C(O)c1ccc(-c2cc(NCCc3ccc4scnc4c3)ncn2)cc1OC1CCC1 [Ex 291] | 538 | 269 | 815 |  | 
40 | CCOc1cc(-c2cc(NCCc3cc4cccnc4cc3C)ncn2)sc1C(=O)O [Ex 177] | 186 | 280 | 156 |  | 
41 | CCOc1cc(-c2cc(NCCc3cc4ccccc4cc3NC)ncn2)ccc1C(=O)O [Ex 312] | 689 | 2490 | 556 |  | 
42 | CCOc1cc(-c2cc(NCCc3ccc4sccc4c3)ncn2)ccc1OCC(=O)O [Ex 121] | 93 | 283 | 42 |  | 
43 | CCOc1cc(-c2cc(NCCc3cc4c(cc3OC)NCCC4)ncn2)sc1C(=O)O [Ex 173] | 183 | 769 | 128 |  | 
44 | CCOc1cc(-c2cc(NCCc3ccc4ncccc4c3)ncn2)sc1-c1noc(=O)[nH]1 [Example 338, 3-{3-Ethoxy-5-[6-(2-quinolin-6-yl-ethylamino)-pyrimidin-4-y]-thiophen-2-yl}-[1,2,4]oxadiazol-5(4H)-one] | 64 | 459 | 15 |  | 
45 | CCOc1cc(-c2cc(NCCc3cc4cnccc4cc3F)ncn2)sc1C(=O)O [Ex 106] | 74 | 831 | 135 |  | 
46 | CCOc1cc(-c2cc(NCCc3ccc4sccc4c3)ncn2)ccc1OC(C)C(=O)O (centres unmarked) [Ex 202] | 234 | 277 | 77 |  | 
47 | CCOc1cc(-c2cc(NCCc3ccc4c(c3)CCS4)ncn2)ccc1C(=O)O [Ex 255] | 380 | 272 | 788 |  | 
48 | CCOc1cc(-c2cc(NCCc3ccc4ccccc4c3C)ncn2)ccc1OCCC(=O)O [Ex 134] | 84 | 358 | 63 |  | 
49 | CCOc1cc(-c2cc(NCCc3ccc4ccsc4c3)ncn2)ccc1OCC(=O)O [Ex 144] | 132 | 751 | 91 |  | 
50 | (4-{6-[2-(7-Ethynyl-2,3-dihydro-benzo[1,4]dioxin-6-yl)-ethylamino]-pyrimidin-4-yl}-2-propyl-phenyl)-acetic acid [Example 440] |  | 25 | 51 |  | 65
